The numbers were not newly measured in patent US20210267955A1, “LOW DOSE ORAL PHARMACEUTICAL COMPOSITION OF PIRFENIDONE OR SALT THEREOF” (Zenvision Pharma LLP, priority 2018, published 2021), which cites them from elsewhere.

For the data set the following is noted: methanol, ethyl alcohol, acetone, chloroform vs water and 1.0 N hydrochloric acid.

As to `Cc1ccc(=O)n(-c2ccccc2)c1` [Pirfenidone, 5-methyl-1-phenyl-2-(1H)-pyridone], the “solubility (qualitative)” value was “more soluble in methanol, ethyl alcohol, acetone and chloroform than in water and 1.0 N hydrochloric acid”.
